Source: paper PMC6108829 (Environmental Health Perspectives, 2018)
Counter-ions that a name gives are not always drawn.

Columns and labels:
[1] = design: method as in Dumont et al. 2011; conditions: third subject (oldest volunteer); ref Dumont et al. 2011; cited from earlier work
[2] = in vivo; cited from earlier work
[3] = mouse, in vivo; cited from earlier work
[4] = Glucuronidation kinetics in pooled human liver microsomes (HPLC-UV); conditions: human, pH 7.4
Method: (§1) Pooled human liver microsomes ( 20mg/mL ) and pooled human intestinal microsomes ( 20mg/mL ) were from BD Biosciences. We first placed the reaction mixtures for 30 min on ice and then incubated them for 5 min at 37°C. The addition of uridine 5'-diphospho-glucuronic acid (Sigma-Aldrich) to a final concentration of 5 mM started the reaction. For the enzyme reactions, we used a temperature of 37°C; the incubation times differed, subject to the BP and microsome type regarded (Table 1). We terminated the glucuronidation reactions with the addition of 10μL perchloric acid (Merck). In the following step, we put the samples on ice for 15 min, centrifuged at 16,000×g for 10 min, and analyzed the supernatants using HPLC-UV.
(§2) We conducted the HPLC-UV analysis on an Agilent 1,100 series HPLC system (Agilent Technologies). For this, we injected 10μL of each sample onto a Poroshell 120 EC-C18 column ( 4.6×100mm , 2.7μm , Agilent Technologies) maintained at 40°C. The mobile phases were 0.1% formic acid (A) and acetonitrile (B). The elution of different BPs consisted of a linear gradient (see Table 2). We further analyzed the results with the GraphPad Prism software (version 5.04; GraphPad Software Inc.,) and selected the most suitable kinetic model (Michaelis-Menten or substrate inhibition, Equations 3 and 4), based on the curve fitting and the shape of the Eadie-Hofstee plots (see Figure S2).
(§3) Michaelis-Menten equation: (3) v=vmax[S]/Km+[S]
(§4) Substrate inhibition equation: (4) v=vmax[S]/Km+[S](1+[S]/Ksi )

[5] = tested on: human liver microsomes; assay: as above; conditions: for glucuronidation compared with the other analogs: at lower, physiologically relevant substrate concentrations, small intestine and liver (Figure 3B); for Hepatic glucuronidation vmax: in vitro value scaled with 32 mg protein/g liver, BPS: uncalibrated model
Method: as §1, §2, §3, §4

[6] = Glucuronidation kinetics in pooled human intestinal microsomes (HPLC-UV); conditions: human, pooled human intestinal microsomes, pH 7.4
Method: as §1, §2, §3, §4

[7] = tested on: human intestinal microsomes; assay: as above; conditions: for Glucuronidation in enterocytes vmax - used in basic model: scaled with 4.29 mg protein/kg BW; for Glucuronidation in enterocytes Ksi: substrate-inhibition kinetics
Method: as §1, §2, §3, §4

[8] = Margin of exposure (MOE = EC50/Cmax) back-of-the-envelope calculation; design: species or system human
[9] = tested on: estrogen receptor; design: method as in Kitamura et al. 2005; conditions: ref Kitamura et al. 2005, cited from earlier work; for EC50: estrogenic potency
[10] = tested on: estrogen receptors; design: method as in Kitamura et al. 2005; Stossi et al. 2014; conditions: ref Kitamura et al. 2005; Stossi et al. 2014; cited from earlier work
[11] = cited from earlier work; for logPow: ref Choi and Lee 2017; for pKa: ref SPARC 2011
[12] = design: method as in Oh et al. (2018); conditions: ref Oh et al. (2018); cited from earlier work
[13] = EC50 (Kitamura et al. 2005)/highest Cmax of basic PBPK model (Table 9)

Compound | AUC, mean (range), measured [2] | Cmax [2] | glucuronidation compared with the other analogs [5] | Hepatic glucuronidation vmax [5] | Km [6] | Glucuronidation in enterocytes vmax - used in basic model [7] | Glucuronidation in enterocytes Ksi [7] | logPow [11] | pKa [11] | Km [4] | EC50 [9] | also measured
O=S(=O)(O)Oc1ccc(Cc2ccc(O)cc2)cc1 [BPF-s] |  |  |  |  |  |  |  |  |  |  |  | share as major metabolite [1]: 75%
CC(C)(c1ccc(O)cc1)c1ccc(OS(=O)(=O)O)cc1 [BPA-s, BPA sulfate] | 3.61 (2.60–4.52) nM*h for 1.5 h | 4.22 nM |  |  |  |  |  |  |  |  |  | share of metabolites present in plasma [3]: 0.5–4.8%
Oc1ccc(C(c2ccc(O)cc2)(C(F)(F)F)C(F)(F)F)cc1 [BPAF, bisphenol AF] |  |  | most effective | 5,660 nmol/h/g liver | 1.83 µM | 107 nmol/h/g bw | 82,200 nM | 2.8 to 4.8 | ~9.2 |  |  | Km ([4]; pooled human liver microsomes): 4.21 µM; Hepatic glucuronidation Ksi ([5]; substrate-inhibition kinetics): 219,000 nM; MOE in serum of females of childbearing age ([8]; 2D-MC analysis, P95/P95): 1,860; MOE in gonads [8, 13]: 1,810; estrogenic potency, times higher than BPA ([9]; from EC50 values): 13 times; estrogenic potency, times higher than the potency of BPA [10]: 7 to 13 times
Oc1ccc(Cc2ccc(O)cc2)cc1 [BPF, bisphenol F] |  |  |  | 3,600 nmol/h/g liver | 57 µM | 462 nmol/h/g bw | 605,000 nM |  | ~7.6 | 17.9 µM | 1000 nM | 
CC(C)(c1ccc(O)cc1)c1ccc(O[C@@H]2O[C@H](C(=O)O)[C@@H](O)[C@H](O)[C@H]2O)cc1 [BPA-g, BPA glucuronide] | 6.66 (5.52–8.34) nM*h for 1.5 h | 6.48 nM |  |  |  |  |  |  |  |  |  | 
O=S(=O)(c1ccc(O)cc1)c1ccc(O)cc1 [BPS, bisphenol S] |  |  | least effective | 26,500 nmol/h/g liver | 354 µM | 563 nmol/h/g bw | 711,000 nM | 1.7–2.1 | ~8.2 | 285 µM | 1100 nM | MOE in serum [8, 13]: 2,440; half-life, times longer than the half-life of BPA [12]: 2.7 times
